Test results reported in ChEMBL document CHEMBL5465560, “Selectivity Literature for EUbOPEN Chemogenomic Library” (2024).

Legend:
[1] = target: Hepatocyte growth factor-like protein (Homo sapiens) (UniProt P26927); assay: Selectivity interaction (Kinase panel (Eurofins)) EUB0001564a MST1; conditions: at 1 µM
[2] = target: T1, Dual specificity mitogen-activated protein kinase kinase 4 (Homo sapiens) (UniProt P45985); conditions: at 10 µM
T1 sequence (whole entry): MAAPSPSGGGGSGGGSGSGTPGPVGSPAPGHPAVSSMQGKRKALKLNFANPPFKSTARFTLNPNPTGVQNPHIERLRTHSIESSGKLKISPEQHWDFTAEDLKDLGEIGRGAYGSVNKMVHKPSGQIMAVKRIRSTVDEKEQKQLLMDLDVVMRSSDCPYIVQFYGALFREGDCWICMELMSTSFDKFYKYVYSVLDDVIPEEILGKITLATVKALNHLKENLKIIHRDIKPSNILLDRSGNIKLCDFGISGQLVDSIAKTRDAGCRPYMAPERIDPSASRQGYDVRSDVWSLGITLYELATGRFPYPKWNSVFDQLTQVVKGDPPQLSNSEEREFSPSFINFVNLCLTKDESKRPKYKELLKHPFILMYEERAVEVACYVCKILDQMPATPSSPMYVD

[3] = target: Tyrosine-protein kinase ABL1 (Homo sapiens, UniProt P00519); assay: Selectivity interaction (ActivX KiNativ screen (kinase selectivity in THP-1 cell lysates)) EUB0000639a ABL1; format: subcellular; conditions: lysate, at 0.01 µM
[4] = target: T2, Cyclin-dependent kinase 11A (Homo sapiens) (UniProt Q9UQ88); assay: Selectivity interaction (ActivX KiNativ screen (kinase selectivity in THP-1 cell lysates)) EUB0000639a CDK11A; format: subcellular; conditions: lysate, at 5 µM
T2 sequence (whole entry): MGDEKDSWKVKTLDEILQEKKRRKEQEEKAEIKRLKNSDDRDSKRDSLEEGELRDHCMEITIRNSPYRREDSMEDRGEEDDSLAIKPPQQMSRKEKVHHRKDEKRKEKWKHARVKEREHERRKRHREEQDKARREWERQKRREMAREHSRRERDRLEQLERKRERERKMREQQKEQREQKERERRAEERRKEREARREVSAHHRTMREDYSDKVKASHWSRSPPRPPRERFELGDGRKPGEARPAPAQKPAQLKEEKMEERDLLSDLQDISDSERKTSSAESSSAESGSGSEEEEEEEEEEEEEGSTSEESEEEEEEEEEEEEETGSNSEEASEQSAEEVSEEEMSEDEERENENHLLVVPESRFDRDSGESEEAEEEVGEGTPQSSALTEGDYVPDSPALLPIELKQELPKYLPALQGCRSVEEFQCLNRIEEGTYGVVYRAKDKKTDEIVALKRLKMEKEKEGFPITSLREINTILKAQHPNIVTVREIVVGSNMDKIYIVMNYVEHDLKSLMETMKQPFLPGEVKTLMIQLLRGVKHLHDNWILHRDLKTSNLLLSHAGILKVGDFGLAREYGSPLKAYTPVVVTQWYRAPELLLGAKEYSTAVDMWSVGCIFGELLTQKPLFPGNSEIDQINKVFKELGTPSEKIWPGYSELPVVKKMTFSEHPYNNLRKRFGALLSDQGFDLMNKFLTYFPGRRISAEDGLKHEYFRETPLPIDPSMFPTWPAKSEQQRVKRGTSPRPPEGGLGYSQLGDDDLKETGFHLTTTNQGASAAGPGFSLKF

[5] = target: Ribosomal protein S6 kinase beta-2 (Homo sapiens) (UniProt Q9UBS0); assay: Selectivity interaction (ProQinase) EUB0000171b RPS6KB2
[6] = target: Homeodomain-interacting protein kinase 1 (Homo sapiens, UniProt Q86Z02); assay: Selectivity interaction (Enzymatic assay (Eurofins)) EUB0001049a HIPK1
[7] = target: T3, Mitogen-activated protein kinase 13 (Homo sapiens) (UniProt O15264); assay: Selectivity interaction (Kinase screening (Upstate/Millipore)) EUB0000604a MAPK13
T3 sequence (whole entry): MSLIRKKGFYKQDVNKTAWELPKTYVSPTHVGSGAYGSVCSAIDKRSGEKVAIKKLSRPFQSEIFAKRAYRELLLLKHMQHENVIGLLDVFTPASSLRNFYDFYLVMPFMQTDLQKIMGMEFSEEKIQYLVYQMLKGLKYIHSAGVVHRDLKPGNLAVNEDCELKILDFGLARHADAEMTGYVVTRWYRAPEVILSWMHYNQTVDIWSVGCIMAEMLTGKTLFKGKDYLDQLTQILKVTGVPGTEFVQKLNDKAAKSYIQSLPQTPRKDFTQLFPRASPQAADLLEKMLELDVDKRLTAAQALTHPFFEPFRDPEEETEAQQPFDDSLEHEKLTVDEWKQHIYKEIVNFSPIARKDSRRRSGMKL

[8] = target: Hepatocyte growth factor receptor (Homo sapiens, UniProt P08581); assay: Selectivity interaction (Kinase panel (Enzyme activity assay)) EUB0000612a MET
[9] = target: T4, Inhibitor of nuclear factor kappa-B kinase subunit epsilon (Homo sapiens) (UniProt Q14164); assay: Selectivity interaction (KinomeScan (DiscoverX)) EUB0001079a IKBKE; conditions: at 1 µM
T4 sequence (whole entry): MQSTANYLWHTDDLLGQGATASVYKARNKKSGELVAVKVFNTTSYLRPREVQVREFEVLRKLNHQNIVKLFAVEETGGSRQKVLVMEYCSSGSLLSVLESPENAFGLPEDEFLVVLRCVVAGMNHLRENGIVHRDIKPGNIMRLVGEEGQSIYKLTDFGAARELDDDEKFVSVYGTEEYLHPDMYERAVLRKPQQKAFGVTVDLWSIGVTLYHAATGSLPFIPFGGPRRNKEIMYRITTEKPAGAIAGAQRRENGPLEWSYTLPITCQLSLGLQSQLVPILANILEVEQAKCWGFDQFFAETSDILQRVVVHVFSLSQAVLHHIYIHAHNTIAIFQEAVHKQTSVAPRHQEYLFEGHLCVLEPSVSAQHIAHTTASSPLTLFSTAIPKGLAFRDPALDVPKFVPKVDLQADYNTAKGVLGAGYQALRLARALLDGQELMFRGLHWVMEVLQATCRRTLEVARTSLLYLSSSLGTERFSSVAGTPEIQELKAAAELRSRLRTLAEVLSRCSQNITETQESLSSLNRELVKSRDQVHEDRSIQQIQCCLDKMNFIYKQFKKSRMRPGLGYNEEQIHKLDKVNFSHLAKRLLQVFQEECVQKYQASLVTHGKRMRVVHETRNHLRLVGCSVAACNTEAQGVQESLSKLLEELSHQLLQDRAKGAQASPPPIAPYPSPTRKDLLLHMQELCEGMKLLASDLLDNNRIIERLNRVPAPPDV

[10] = target: Cyclin-dependent kinase 14 (Homo sapiens) (UniProt O94921); assay: Selectivity interaction (Kinase panel (KiNativ target engagement assay in Jurkat cells)) EUB0001635a CDK14; format: cell-based; conditions: at 1 µM
[11] = target: Cyclin-dependent kinase 11B (Homo sapiens) (UniProt P21127); assay: Selectivity interaction (KinomeScan (DiscoverX)) EUB0000092b CDK11B; conditions: at 10 µM
Cyclin-dependent kinase 11B (Homo sapiens), sequence (P21127 whole entry): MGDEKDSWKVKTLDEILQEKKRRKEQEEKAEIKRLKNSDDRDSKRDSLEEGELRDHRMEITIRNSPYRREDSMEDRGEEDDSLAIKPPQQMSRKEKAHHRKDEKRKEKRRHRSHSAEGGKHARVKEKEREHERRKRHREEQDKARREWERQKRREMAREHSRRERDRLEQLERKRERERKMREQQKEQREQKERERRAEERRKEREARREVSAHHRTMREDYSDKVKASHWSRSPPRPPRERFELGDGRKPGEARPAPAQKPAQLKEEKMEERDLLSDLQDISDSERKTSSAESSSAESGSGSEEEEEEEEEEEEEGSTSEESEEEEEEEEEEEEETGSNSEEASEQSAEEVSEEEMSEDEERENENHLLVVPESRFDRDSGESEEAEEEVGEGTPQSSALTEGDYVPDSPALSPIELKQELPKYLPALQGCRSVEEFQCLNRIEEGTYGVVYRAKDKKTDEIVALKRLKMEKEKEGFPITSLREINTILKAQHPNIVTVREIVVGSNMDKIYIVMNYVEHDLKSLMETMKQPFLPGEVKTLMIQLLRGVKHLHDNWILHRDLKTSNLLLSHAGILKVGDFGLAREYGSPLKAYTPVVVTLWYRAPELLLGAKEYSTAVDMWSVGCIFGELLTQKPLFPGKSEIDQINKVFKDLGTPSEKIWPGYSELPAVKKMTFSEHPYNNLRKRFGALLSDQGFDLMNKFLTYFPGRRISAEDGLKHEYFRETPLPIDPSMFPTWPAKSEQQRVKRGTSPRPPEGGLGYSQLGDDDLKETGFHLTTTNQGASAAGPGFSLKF

Ribosomal protein S6 kinase beta-2 (Homo sapiens), sequence (Q9UBS0 whole entry): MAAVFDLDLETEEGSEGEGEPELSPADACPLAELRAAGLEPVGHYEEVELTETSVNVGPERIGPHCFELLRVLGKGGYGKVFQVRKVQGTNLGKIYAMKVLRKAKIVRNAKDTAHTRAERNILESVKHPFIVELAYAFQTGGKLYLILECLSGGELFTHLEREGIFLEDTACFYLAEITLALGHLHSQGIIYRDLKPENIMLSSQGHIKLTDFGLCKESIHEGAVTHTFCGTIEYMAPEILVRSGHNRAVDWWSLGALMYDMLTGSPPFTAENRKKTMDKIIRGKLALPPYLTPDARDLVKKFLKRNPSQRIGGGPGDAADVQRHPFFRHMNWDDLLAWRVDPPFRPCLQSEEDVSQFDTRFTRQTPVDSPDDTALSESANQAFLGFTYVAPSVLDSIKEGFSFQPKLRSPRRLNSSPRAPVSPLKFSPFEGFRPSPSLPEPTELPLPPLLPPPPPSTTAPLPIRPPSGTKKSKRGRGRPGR
Hepatocyte growth factor receptor, sequence (P08581 whole entry): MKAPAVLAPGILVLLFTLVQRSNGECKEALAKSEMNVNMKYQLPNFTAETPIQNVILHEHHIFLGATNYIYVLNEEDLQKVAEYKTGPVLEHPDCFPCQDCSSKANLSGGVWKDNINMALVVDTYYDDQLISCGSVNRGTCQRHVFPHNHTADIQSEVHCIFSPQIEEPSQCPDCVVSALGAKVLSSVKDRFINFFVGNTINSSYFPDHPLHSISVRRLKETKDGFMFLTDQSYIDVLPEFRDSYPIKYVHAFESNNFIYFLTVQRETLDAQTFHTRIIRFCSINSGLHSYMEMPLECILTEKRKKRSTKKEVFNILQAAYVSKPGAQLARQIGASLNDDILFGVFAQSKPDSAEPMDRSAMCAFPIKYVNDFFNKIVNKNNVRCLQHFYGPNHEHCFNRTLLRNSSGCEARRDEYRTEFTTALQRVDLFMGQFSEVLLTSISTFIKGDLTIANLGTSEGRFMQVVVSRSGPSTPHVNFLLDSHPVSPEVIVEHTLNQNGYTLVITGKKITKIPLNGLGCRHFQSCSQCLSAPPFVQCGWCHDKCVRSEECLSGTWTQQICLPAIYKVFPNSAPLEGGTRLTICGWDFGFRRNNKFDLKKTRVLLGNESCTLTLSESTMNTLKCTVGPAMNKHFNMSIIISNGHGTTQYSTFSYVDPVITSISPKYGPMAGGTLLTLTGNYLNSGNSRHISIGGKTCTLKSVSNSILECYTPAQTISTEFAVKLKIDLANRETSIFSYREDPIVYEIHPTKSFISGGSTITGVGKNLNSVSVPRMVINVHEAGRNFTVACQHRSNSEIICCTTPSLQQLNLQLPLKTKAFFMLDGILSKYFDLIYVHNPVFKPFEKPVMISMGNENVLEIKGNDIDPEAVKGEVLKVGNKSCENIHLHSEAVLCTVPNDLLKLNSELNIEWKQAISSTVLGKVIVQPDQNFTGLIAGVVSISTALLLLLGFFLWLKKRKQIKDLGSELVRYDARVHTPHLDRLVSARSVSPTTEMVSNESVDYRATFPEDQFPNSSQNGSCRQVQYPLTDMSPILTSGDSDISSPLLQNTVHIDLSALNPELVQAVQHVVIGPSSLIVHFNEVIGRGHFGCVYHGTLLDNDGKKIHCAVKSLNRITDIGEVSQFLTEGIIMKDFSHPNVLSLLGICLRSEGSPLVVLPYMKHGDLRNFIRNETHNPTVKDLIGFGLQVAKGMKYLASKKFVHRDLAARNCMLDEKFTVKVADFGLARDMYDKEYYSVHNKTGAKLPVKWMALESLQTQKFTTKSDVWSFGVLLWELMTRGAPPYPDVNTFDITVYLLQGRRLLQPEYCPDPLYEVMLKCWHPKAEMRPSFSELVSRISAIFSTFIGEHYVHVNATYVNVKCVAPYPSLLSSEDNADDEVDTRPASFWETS
Tyrosine-protein kinase ABL1, sequence (P00519 whole entry): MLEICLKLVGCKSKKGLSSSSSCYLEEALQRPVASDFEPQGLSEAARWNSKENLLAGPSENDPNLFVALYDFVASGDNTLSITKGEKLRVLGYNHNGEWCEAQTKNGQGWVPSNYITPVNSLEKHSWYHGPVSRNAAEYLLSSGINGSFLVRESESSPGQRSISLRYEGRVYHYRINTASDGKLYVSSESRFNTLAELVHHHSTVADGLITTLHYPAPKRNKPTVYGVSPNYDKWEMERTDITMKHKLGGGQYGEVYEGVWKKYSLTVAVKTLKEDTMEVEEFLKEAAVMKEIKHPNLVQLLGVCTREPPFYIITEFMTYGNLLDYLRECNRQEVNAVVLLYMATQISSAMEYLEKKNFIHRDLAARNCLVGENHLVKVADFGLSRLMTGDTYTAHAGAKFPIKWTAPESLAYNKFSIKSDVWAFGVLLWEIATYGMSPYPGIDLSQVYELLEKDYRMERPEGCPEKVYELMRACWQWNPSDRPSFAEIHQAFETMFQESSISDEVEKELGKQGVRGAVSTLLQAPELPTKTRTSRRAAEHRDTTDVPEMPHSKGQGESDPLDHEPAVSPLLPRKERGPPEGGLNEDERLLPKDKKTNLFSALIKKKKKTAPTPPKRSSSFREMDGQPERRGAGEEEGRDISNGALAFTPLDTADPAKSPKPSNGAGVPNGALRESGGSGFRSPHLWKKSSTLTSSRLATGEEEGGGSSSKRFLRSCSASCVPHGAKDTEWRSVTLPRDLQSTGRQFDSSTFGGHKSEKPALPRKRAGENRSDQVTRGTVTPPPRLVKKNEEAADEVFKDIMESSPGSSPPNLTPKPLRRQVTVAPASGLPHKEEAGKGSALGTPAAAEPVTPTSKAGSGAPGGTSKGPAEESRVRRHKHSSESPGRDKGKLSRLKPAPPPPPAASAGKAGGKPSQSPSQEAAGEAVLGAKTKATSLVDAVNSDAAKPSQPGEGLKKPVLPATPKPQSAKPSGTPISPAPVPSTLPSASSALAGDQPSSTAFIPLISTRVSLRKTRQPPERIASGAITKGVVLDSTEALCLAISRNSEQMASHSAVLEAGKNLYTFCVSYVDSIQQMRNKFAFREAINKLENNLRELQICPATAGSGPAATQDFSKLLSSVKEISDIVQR
Homeodomain-interacting protein kinase 1, sequence (Q86Z02 whole entry): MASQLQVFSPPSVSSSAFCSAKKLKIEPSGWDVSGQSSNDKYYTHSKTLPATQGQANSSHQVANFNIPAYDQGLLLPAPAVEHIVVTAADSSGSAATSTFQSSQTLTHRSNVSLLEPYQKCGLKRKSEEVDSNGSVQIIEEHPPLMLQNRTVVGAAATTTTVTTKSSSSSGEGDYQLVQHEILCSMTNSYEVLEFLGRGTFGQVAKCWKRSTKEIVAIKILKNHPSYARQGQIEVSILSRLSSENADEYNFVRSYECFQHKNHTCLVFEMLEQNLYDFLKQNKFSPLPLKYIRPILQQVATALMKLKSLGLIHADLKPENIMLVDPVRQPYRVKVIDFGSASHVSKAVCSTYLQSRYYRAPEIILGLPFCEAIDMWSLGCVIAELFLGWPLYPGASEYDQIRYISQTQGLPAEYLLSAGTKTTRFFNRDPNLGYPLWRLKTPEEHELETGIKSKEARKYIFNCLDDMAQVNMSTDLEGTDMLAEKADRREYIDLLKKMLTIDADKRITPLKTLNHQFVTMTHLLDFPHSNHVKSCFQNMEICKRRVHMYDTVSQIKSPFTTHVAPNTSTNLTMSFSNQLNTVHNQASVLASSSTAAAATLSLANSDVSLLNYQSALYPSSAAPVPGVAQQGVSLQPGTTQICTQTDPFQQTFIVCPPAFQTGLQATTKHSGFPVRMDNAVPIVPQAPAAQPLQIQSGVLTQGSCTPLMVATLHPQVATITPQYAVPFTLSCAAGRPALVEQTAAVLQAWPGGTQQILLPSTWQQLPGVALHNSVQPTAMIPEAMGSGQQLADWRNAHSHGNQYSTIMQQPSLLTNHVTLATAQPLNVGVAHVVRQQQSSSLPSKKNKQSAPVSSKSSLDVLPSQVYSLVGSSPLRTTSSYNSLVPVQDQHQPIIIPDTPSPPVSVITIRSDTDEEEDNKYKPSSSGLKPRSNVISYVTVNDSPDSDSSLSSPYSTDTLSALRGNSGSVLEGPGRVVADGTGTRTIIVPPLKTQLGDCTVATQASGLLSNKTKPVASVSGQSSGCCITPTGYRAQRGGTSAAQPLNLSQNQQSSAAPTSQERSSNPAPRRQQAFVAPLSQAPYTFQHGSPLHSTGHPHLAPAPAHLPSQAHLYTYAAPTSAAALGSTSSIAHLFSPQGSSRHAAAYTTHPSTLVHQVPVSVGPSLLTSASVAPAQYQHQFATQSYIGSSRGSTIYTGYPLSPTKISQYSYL

Structure (SMILES): CC[C@@H](Nc1c(C#N)c(-c2ccc(-c3cccc(C)c3F)cc2)nc2cnccc12)C(=O)O [BAY-091]
- % of inhibition [1]: 20.6%

Structure (SMILES): CCN(CC)CCCCNc1ncc2cc(-c3cc(OC)cc(OC)c3)c(NC(=O)NC(C)(C)C)nc2n1
- % of control [2]: 100%

Structure (SMILES): CC[C@@H]1[C@H](F)C(=O)N[C@@H]1COc1nccc2cc(C(N)=O)c(OC)cc12 [ZIMLOVISERTIB]
- % of inhibition [3]: 52%
- % of inhibition [4]: -20.8%

Structure (SMILES): C=CC(=O)Nc1cccc(C(=O)Nc2ccc(Nc3cc(-c4[nH]c(SC)nc4C)ccn3)cc2)c1
- % of control ([5]; at 1 µM): 87%
- % of control ([5]; at 5 µM): 79%

Structure (SMILES): COc1cc(Nc2nc(C)cc(-c3cnn4nc(OC)ccc34)n2)cc(C(F)(F)F)c1
- IC50 [6]: > 10 µM

Structure (SMILES): Cc1cnc(Nc2ccc(F)cc2Cl)nc1-c1c[nH]c(C(=O)N[C@H](CO)c2cccc(Cl)c2)c1
- % of inhibition [7]: 54%

Structure (SMILES): CCc1cccc(CC)c1NC(=O)c1nn(C)c2c1CCc1cnc(Nc3ccc(C(=O)NC4CCN(C)CC4)cc3OC(F)(F)F)nc1-2
- IC50 [8]: > 10 µM

Structure (SMILES): Nc1cnc(N2CCc3cc(S(=O)(=O)Nc4c(F)cc(Cl)cc4F)cc(N4CCCC4=O)c32)nc1 [TP-020n]
- % of control [9]: 95%

Structure (SMILES): C=CC(=O)Nc1ccc(C(=O)Nc2[nH]nc3c2CN(C(=O)N[C@H](CN(C)C)c2ccccc2)C3(C)C)cc1
- % of engagement [10]: -33.3%

Structure (SMILES): CCC(=O)N1CCN(c2ccc(-n3c(=O)ccc4cnc5ccc(-c6cnc7ccccc7c6)cc5c43)cc2C(F)(F)F)CC1
- % of control [11]: 97%
